Data reported in patent US6492364B1, “Triazolo and derivatives as chemokine inhibitors” (Toray Industries, Inc., priority 1998, dated 2002).
Structures can show the parent of a compound that is named as a salt.

Tests used:
CCR3 = molecular target: T1, CCR3 (Homo sapiens, UniProt P51677); assay: Inhibition of eotaxin-induced intracellular calcium increase in human eosinophils (Fura-2); assay type: cell-based; details: human peripheral blood eosinophils, stimulated with eotaxin (5 ng/ml), intracellular calcium level
T1 construct: endogenous in cells; host or cells: human peripheral blood eosinophils (primary cells)
T1 sequence (P51677 1-355): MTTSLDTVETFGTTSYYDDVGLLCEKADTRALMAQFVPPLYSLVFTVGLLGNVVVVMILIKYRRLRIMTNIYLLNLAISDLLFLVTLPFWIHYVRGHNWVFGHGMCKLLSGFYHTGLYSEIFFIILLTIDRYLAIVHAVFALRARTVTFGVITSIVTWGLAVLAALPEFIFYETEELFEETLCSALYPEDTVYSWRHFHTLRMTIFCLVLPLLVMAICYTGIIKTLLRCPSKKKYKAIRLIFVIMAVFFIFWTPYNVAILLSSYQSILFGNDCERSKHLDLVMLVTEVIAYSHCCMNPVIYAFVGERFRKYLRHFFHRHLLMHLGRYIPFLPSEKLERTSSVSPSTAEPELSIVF
Description: (§1) The CCR receptor-inhibiting activities of the compounds represented by Formula I will now be described. Using human eosinophil or human monocytic cell line (THP-1), the CCR receptor-inhibiting activities were studied.
(§2) Human peripheral blood eosinophils or THP- l cells were suspended in RPMI-1640 culture medium containing 1% fetal calf serum (FCS) and cultured at 37° C. for 30 minutes in the presence of 5 μM of Fura-2/AM (DOJINDO LABORATORIES). The cells were washed twice with assay buffer (140 mM NaCl, 10 mM KCl, 1.8mM CaCl2, 1 mM MgCl2, 1 mM Na2HPO4, 25mM HEPES, 5 mM glucose, 1% BSA; pH7.4) at 4° C. to remove Fura-2/AM which was not taken into the cells. The cells were suspended in the assay buffer to a final cell density of 1×10^6 cells/ml and the cell suspension was stored in the dark until assay. The calcium levels in the cells were measured by using CAF100 commercially available from Nippon Koden Co. That is, 490 μl of the suspension of the cells loaded with Fura-2 was placed in a cuvette and the cuvette was set in CAF100. After the fluorescence intensities at 340 nm and 380 nm of excitation, as well as the ratio thereof, were stabilized, 10 μl of 250 μM solution of each test compound was injected. The change in the calcium level in the cells within one minute from the stimulation was measured in terms of the ratio (F340/F380) of the intensity of the excitation light at 340 nm to that of the light at 380 nm, and the intracellular calcium level induced by the stimulation was defined as the peak of the ratio. One minute after exposure of the cells to each test compound, the cells were stimulated with eotaxin (5 ng/ml), RANTES (40 ng/ml) or MCP-1 (10 ng/ml). It is thought that the responses by THP-1 cells to RANTES and MCP-1 are mediated through CCR1 and CCR2, respectively; The response of eosinophils to eotaxin is thought to be mediated through CCR3. The increase of the intracellular calcium level was compared to that of the corresponding case wherein the cells were not treated with the test compound.

CCR1 = molecular target: T2, CCR1 (Homo sapiens, UniProt P32246); assay: Inhibition of RANTES-induced intracellular calcium increase in THP-1 cells (Fura-2); assay type: cell-based; details: human monocytic cell line THP-1, stimulated with RANTES (40 ng/ml), intracellular calcium level
T2 construct: endogenous in cells; host or cells: THP-1 (human monocytic cell line)
T2 sequence (P32246 1-355): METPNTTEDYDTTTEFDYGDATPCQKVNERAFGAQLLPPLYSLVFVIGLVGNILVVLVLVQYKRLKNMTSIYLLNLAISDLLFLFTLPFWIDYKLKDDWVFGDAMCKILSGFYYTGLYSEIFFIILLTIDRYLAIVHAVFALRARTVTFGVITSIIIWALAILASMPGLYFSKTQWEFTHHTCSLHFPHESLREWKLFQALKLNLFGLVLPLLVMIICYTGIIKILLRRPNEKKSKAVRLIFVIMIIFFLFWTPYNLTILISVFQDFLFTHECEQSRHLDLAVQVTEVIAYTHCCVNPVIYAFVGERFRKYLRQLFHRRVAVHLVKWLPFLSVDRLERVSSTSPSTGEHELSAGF
Description: as §1, §2

CCR2 = molecular target: T3, CCR2 (Homo sapiens, UniProt P41597); assay: Inhibition of MCP-1-induced intracellular calcium increase in THP-1 cells (Fura-2); assay type: cell-based; details: human monocytic cell line THP-1, stimulated with MCP-1 (10 ng/ml), intracellular calcium level
T3 construct: endogenous in cells; host or cells: THP-1 (human monocytic cell line)
T3 sequence (P41597 1-360 isoform P41597-2): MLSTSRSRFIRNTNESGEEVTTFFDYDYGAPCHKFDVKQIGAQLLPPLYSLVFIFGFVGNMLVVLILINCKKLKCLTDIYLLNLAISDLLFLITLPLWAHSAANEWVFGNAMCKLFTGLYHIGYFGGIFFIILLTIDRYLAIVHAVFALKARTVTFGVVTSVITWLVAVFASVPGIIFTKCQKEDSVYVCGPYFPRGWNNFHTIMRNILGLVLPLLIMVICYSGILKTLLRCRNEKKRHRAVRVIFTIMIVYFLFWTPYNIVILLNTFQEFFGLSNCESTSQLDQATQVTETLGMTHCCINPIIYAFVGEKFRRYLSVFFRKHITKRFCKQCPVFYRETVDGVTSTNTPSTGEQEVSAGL
Description: as §1, §2

CCCc1nnc2n(CCCN3CCN(C(c4ccccc4)c4ccccc4)CC3)c(=O)c3ccccc3n12 [Compound 28]
melting point: 150 to 152 °C
IC50 (CCR3): 1.4 µM
IC50 (CCR1): 9.3 µM
IC50 (CCR2): > 160 µM

COc1ccc2c(c1)c(=O)n(CCCN1CCN(C(c3ccccc3)c3ccccc3)CC1)c1nnc(C)n21 [Compound 33]
melting point: 194 to 196 °C

Cc1nnc2n(CCCN3CCN(C(c4ccccc4)c4ccccc4)CC3)c(=O)c3cc(O)ccc3n12 [Compound 40]
melting point: 225 to 228 °C

Cc1nnc2n(CCCCN3CCN(C(c4ccccc4)c4ccccc4)CC3)c(=O)c3ccccc3n12 [Compound 55]
melting point: 157 to 159 °C

Cc1nnc2n(CCCN3CCN(Cc4ccc(Oc5ccccc5)cc4)CC3)c(=O)c3ccccc3n12 (as salt: hydrochloride) [Compound 20, 2,4,5,7-Tetraaza-3-methyl-7-(3-(4-((4-phenoxyphenyl)methyl)piperazinyl)propyl)tricyclo[7.4.0.0<2,6>]trideca-1(13),3,5,9(10),11-pentaene-8-one]
melting point: 229 to 237 °C

Cc1nnc2n(CCCN3CCN(Cc4cccc(Oc5ccccc5)c4)CC3)c(=O)c3ccccc3n12 (as salt: hydrochloride) [Compound 17, 2,4,5,7-Tetraaza-3-methyl-7-(3-(4-((3-phenoxyphenyl)methyl)piperazinyl)propyl)tricyclo[7.4.0.0<2,6>]trideca-1(13),3,5,9(10),11-pentaene-8-one]
melting point: 225 to 230.5 °C

Cc1nnc2c(CCCN3CCC(C(c4ccccc4)c4ccccc4)CC3)nc3ccccc3n12 [Compound 74]
melting point: 88 to 90 °C

Cc1nnc2n(CCCCN3CCC(C(c4ccccc4)c4ccccc4)CC3)c(=O)c3ccccc3n12 (as salt: hydrochloride) [Compound 56]
melting point: 166.5 to 180 °C

Cc1nnc2n(CCCN3CCC(C(c4ccccc4)c4ccccc4)CC3)c(=O)c3ccccc3n12 (as salt: hydrochloride) [Compound 14]
melting point: 172.8 to 190.5 °C

Cc1nnc2n(CCCN3CCN(Cc4ccccc4-c4ccccc4)CC3)c(=O)c3ccccc3n12 [Compound 11, 2,4,5,7-Tetraaza-3-methyl-7-(3-(4-((2-phenylphenyl)methyl)piperazinyl)propyl)tricyclo[7.4.0.0<2,6>]trideca-1(13),3,5,9(10),11-pentaene-8-one]
IC50 (CCR3): 3.6 µM
IC50 (CCR1): 9.1 µM
IC50 (CCR2): > 160 µM

Cc1nnc2n(-c3cccc(N4CCC(C(c5ccccc5)c5ccccc5)CC4)c3)c(=O)c3ccccc3n12 [Compound 85]
melting point: 277 to 279 °C

Cc1nnc2n(CCCN3CCN(Cc4ccc(Cl)c(Cl)c4)CC3)c(=O)c3ccccc3n12 [Compound 93, 2,4,5,7-Tetraaza-7-(3-(4-(3,4-dichlorobenzyl)piperazine-1-yl)propyl)-3-methyltricyclo[7.4.0.0<2,6>]trideca-1(13),3,5,9(10),11-pentaene-8-one]
melting point: 77 to 79 °C

Cc1nnc2n(CCCN3CCN(C(c4ccccc4)c4ccccc4)CC3)c(=O)c3ccc(C(F)(F)F)cc3n12 [Compound 45]
melting point: 154 to 159.5 °C

Cc1nnc2n(CCCN3CCC(=C(c4ccccc4)c4ccccc4)CC3)c(=O)c3ccccc3n12 [Compound 7]
melting point: 157 to 159 °C

Cc1nnc2n(CCCN3CCCC(c4c[nH]c5ccccc45)C3)c(=O)c3ccccc3n12 (stereo not drawn) [Compound 5, 2,4,5,7-Tetraaza-7-(3-(3-indole-3-ylpiperidyl)propyl)-3-methyltricyclo[7.4.0.0<2,6>]trideca-1(13),3,5,9(10),11-pentaene-8-one]
melting point: 207 to 212 °C (dec.)
IC50 (CCR1): 12.9 µM
IC50 (CCR2): 48.1 µM

Cc1nnc2n(CCCN3CCN(C(c4ccccc4)c4ccccc4)CC3)c(=O)c3cc(Cl)ccc3n12 [Compound 38]
melting point: 116 to 118 °C
IC50 (CCR3): 0.5 µM
IC50 (CCR1): 16 µM
IC50 (CCR2): > 160 µM

Cc1nnc2n(CCCN3CCN(C(c4ccccc4)c4ccccc4)CC3)c(=O)c3cc(N(C)C)ccc3n12 [Compound 47]
melting point: 189 to 191 °C

COc1cc2c(=O)n(CCCN3CCN(C(c4ccccc4)c4ccccc4)CC3)c3nnc(C)n3c2cc1OC [Compound 35]
melting point: 184 to 186 °C

Cc1nnc2n(CCN3CCN(C(c4ccccc4)c4ccccc4)CC3)c(=O)c3ccccc3n12 [Compound 50]
melting point: 217 to 219 °C

Cc1nnc2n(CCCN3CCN(C4CCCCC4)CC3)c(=O)c3ccccc3n12 [Compound 12]
melting point: 118 to 120 °C

Cc1nnc2n(CCCN3CCC(c4c[nH]c5ccccc45)CC3)c(=O)c3ccccc3n12 [Compound 6, 2,4,5,7-Tetraaza-7-(3-(4-indole-3-ylpiperidyl)propyl)-3-methyltricyclo[7.4.0.0<2,6>]trideca-1(13),3,5,9(10),11-pentaene-8-one]
melting point: 207 to 209 °C (dec.)

Cc1nnc2n(CCCN3CCN(C(c4ccccc4)c4ccccc4)CC3)c(=O)c3ccccc3n12 [Compound 26]
melting point: 168 to 173 °C
IC50 (CCR3): 0.3 µM
IC50 (CCR1): 4.1 µM
IC50 (CCR2): > 160 µM

CCc1nnc2n(CCCN3CCN(C(c4ccccc4)c4ccccc4)CC3)c(=O)c3ccccc3n12 [Compound 27]
melting point: 199 to 201 °C
